Reference: patent US11981661B2, “Heterocyclic compounds” (Hoffmann-La Roche Inc., priority 2020, dated 2024)

The molecules below were run against T1, MAGL (Homo sapiens, UniProt Q99685) (assay: 2-AG assay (MAGL inhibitory activity, hydrolysis of 2-arachidonoylglycerol followed by mass spectrometry)). Conditions: 50 pM MAGL, 8 μM 2-arachidonoylglycerol, 15 min preincubation, 30 min incubation at RT, concentration range 12.5 μM to 0.8 pM.
T1 sequence (Q99685 1-303): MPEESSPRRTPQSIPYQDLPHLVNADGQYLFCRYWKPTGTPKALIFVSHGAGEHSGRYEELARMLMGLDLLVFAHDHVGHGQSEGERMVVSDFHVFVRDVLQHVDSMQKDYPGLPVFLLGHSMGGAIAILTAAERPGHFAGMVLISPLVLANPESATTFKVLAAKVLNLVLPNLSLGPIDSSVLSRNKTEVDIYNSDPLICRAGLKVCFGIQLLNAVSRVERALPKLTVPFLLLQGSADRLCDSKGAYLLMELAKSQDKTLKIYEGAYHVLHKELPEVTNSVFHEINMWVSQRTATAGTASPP
Assay type: biochemical
Method: Compounds were profiled for MAGL inhibitory activity by determining the enzymatic activity by following the hydrolysis of the natural substrate 2-arachidonoylglycerol resulting in arachidonic acid, which can be followed by mass spectrometry. This assay is hereinafter abbreviated “2-AG assay”.
The 2-AG assay was carried out in 384 well assay plates (PP, Greiner Cat #784201) in a total volume of 20 μL. Compound dilutions were made in 100% DMSO (VWR Chemicals 23500.297) in a polypropylene plate in 3-fold dilution steps to give a final concentration range in the assay from 12.5 μM to 0.8 pM. 0.25 μL compound dilutions (100% DMSO) were added to 9 μL MAGL in assay buffer (50 mM TRIS (GIBCO, 15567-027), 1 mM EDTA (Fluka, 03690-100 mL), 0.01% (v/v) Tween. After shaking, the plate was incubated for 15 min at RT. To start the reaction, 10 μL 2-arachidonoylglycerol in assay buffer was added. The final concentrations in the assay was 50 pM MAGL and 8 μM 2-arachidonoylglyerol. After shaking and 30 min incubation at RT, the reaction was quenched by the addition of 40 μL of ACN containing 4 μM of d8-arachidonic acid. The amount of arachidonic acid was traced by an online SPE system (Agilent Rapidfire) coupled to a triple quadrupole mass spectrometer (Agilent 6460). A C18 SPE cartridge (G9205A) was used in an ACN/water liquid setup. The mass spectrometer was operated in negative electrospray mode following the mass transitions 303.1→259.1 for arachidonic acid and 311.1→267.0 for d8-arachidonic acid. The activity of the compounds was calculated based on the ratio of intensities [arachidonic acid/d8-arachidonic acid].

IC50 | SMILES
2 nM | O=C1N[C@H](CCC(=O)N2CC(c3ccc(-c4ccc(F)cc4F)cc3)C2)CO1 [Example 24, (4R)-4-[3-[3-[4-(2,4-Difluorophenyl)phenyl]azetidin-1-yl]-3-oxo-propyl]oxazolidin-2-one]
93 nM | O=C(NCCc1cnn[nH]1)N1CC(OCc2ccc(C(F)(F)F)cc2F)C1 [Example 64, 3-[[2-Fluoro-4-(trifluoromethyl)phenyl]methoxy]-N-[2-(1H-triazol-5-yl)ethyl]azetidine-1-carboxamide]
218 nM | O=C(CCCc1cnn[nH]1)N1CC(c2ccc(Oc3ccc(OC(F)(F)F)cc3)nc2)C1 [Example 42, 4-(1H-Triazol-5-yl)-1-[3-[6-[4-(trifluoro-methoxy)phenoxy]-3-pyridyl]azetidin-1-yl]butan-1-one]
206 nM | O=C1N[C@H](CCC(=O)N2CC3(CN(Cc4ccc(S(=O)(=O)C(F)(F)F)cc4)C3)C2)CO1 [Example 187, (4R)-4-[3-Oxo-3-[6-[[4-(trifluoro-methylsulfonyl)phenyl]methyl]-2,6-diazaspiro [3.3]heptan-2-yl]propyl] oxazolidin-2-one]
353 nM | O=C1N[C@H](CCC(=O)N2CC(c3ccc(-c4nc(C5CC5)n[nH]4)cc3)C2)CO1 [Example 177, (4R)-4-[3-[3-[4-(3-Cyclo-propyl-1H-1,2,4-triazol-5-yl)phenyl]azetidin-1-yl]-3-oxo-propyl]oxazolidin-2-one]
≥ 12500 nM | O=C1CCC(CCC(=O)N2C[C@@H]3CN(Cc4ccc(C(F)(F)F)cc4F)C[C@H]3C2)N1 (single isomer, unassigned; (-)) [Example 11]
2 nM | CN(CCc1cnn[nH]1)C(=O)N1CC(c2ccc(C3(C(F)(F)F)CC3)cc2)C1 [Example 65, N-Methyl-N-[2-(1H-triazol-5-yl)ethyl]-3-[4-[1-(trifluoromethyl)cyclopropyl]phenyl] azetidine-1-carboxamide]
13 nM | O=C1N[C@H](COC(=O)N2CC(C#Cc3ccccc3C(F)F)C2)CO1 [Example 61, [(4S)-2-Oxooxazolidin-4-yl]methyl 3-[2-[2-(difluoromethyl)phenyl]ethynyl] azetidine-1-carboxylate]
78 nM | O=C1N[C@H](CCC(=O)N2CC(c3ccc(N4CC5(C4)CC(F)(F)C5)nc3)C2)CO1 [Example 141, (4R)-4-[3-[3-[6-(6,6-Difluoro-2-azaspiro[3.3]heptan-2-yl)-3-pyridyl]azetidin-1-yl]-3-oxo-propyl]oxazolidin-2-one]
12 nM | O=C1N[C@H](CCC(=O)N2CC(c3cnc(C4CC5(CCC5)C4)cn3)C2)CO1 [Example 164, (4R)-4-[3-Oxo-3-[3-(5-spiro[3.3]heptan-2-ylpyrazin-2-yl)azetidin-1-yl]propyl] oxazolidin-2-one]
1 nM | CS(=O)(=O)c1ccc(-c2ccc(C3CN(C(=O)CC[C@@H]4COC(=O)N4)C3)cc2)c(Cl)c1 [Example 73, (4R)-4-[3-[3-[4-(2-Chloro-4-methyl-sulfonyl-phenyl)phenyl]azetidin-1-yl]-3-oxo-propyl]oxazolidin-2-one]
75 nM | O=C1N[C@H](CCC(=O)N2CC(c3ccc([C@H]4C[C@H](C(F)(F)F)C4)nc3)C2)CO1 [Example 203, Trans-(4R)-4-[3-Oxo-3-[3-[6-[3-(trifluoromethyl)cyclobutyl]-3-pyridyl]azetidin-1-yl]propyl]oxazolidin-2-one]
2310 nM | O=C1CCC(CCC(=O)N2C[C@@H]3CN(Cc4ccc(C(F)(F)F)cc4F)C[C@H]3C2)N1 (single isomer, unassigned; (+)) [Example 12]
23 nM | CC(C)(Oc1ccc(C2CN(C(=O)CCCc3cnn[nH]3)C2)cc1)C(F)(F)F [Example 41, 4-(1H-Triazol-5-yl)-1-[3-[4-(2,2,2-trifluoro-1,1-dimethyl-ethoxy)phenyl]azetidin-1-yl]butan-1-one]
46 nM | CS(=O)(=O)c1cccc(CC2CC3(C2)CN(C(=O)CC[C@@H]2COC(=O)N2)C3)c1 [Example 179, (4R)-4-[3-[6-[(3-Methyl-sulfonylphenyl)methyl]-2-azaspiro[3.3]heptan-2-yl]-3-oxo-propyl]oxazolidin-2-one]
43 nM | O=C1N[C@H](CCC(=O)N2CC(c3cnc(N4CCC(C(F)(F)F)C4)cn3)C2)CO1 (stereo partly drawn) [Example 105, (4R)-4-[3-Oxo-3-[3-[5-[3-(trifluoro-methyl)pyrrolidin-1-yl]pyrazin-2-yl]azetidin-1-yl]propyl] oxazolidin-2-one]
1330 nM | CC1(O)CN(c2ccc(C3CN(C(=O)CC[C@@H]4COC(=O)N4)C3)cn2)C1 [Example 160, (4R)-4-[3-[3-[6-(3-Hydroxy-3-methyl-azetidin-1-yl)-3-pyridyl]azetidin-1-yl]-3-oxo-propyl]oxazolidin-2-one]
59 nM | CC(CCc1cnn[nH]1)C(=O)N1CC(c2ccc(C3(C(F)(F)F)CC3)cc2)C1 (stereo not drawn) [Example 68, 2-Methyl-4-(1H-triazol-5-yl)-1-[3-[4-[1-(trifluoromethyl)cyclopropyl]phenyl]azetidin-1-yl]butan-1-one]
907 nM | O=C1CC[C@H](COC(=O)N2CC(OCc3ccc(C(F)(F)F)cc3F)C2)N1 [Example 53, [(2R)-5-Oxopyrrolidin-2-yl]methyl 3-[[2-fluoro-4-(trifluoromethyl)phenyl]methoxy] azetidine-1-carboxylate]
4030 nM | O=C(CCc1cnn[nH]1)N1CC(OCc2ccc(C(F)(F)F)cc2F)C1 [Example 36, 1-(3-((2-Fluoro-4-(trifluoromethyl)benzyl)oxy)azetidin-1-yl)-3-(1H-1,2,3-triazol-5-yl)propan-1-one]
9 nM | O=C1N[C@H](CCC(=O)N2CC(c3ccc([C@H]4CC[C@H](C(F)(F)F)CC4)nc3)C2)CO1 (single isomer, unassigned) [Example 201]
25 nM | O=C1N[C@H](CCC(=O)N2CC3(CCN(Cc4ccc(C(F)(F)F)cc4F)CC3)C2)CO1 [Example 126, (4R)-4-[3-[7-[[2-Fluoro-4-(trifluoro-methyl)phenyl]methyl]-2,7-diazaspiro[3.5]nonan-2-yl]-3-oxo-propyl] oxazolidin-2-one]
1 nM | O=C1N[C@H](CCC(=O)N2CC(c3ccc(C4(C(F)(F)F)CC4)cc3)C2)CO1 [Example 22, (4R)-4-[3-Oxo-3-[3-[4-[1-(trifluoromethyl)cyclo-propyl]phenyl]azetidin-1-yl]propyl]oxazolidin-2-one]
0.35 nM | O=C1N[C@H](CCC(=O)N2CC(c3ccc(N(CC4CC4)c4ccccc4)nc3)C2)CO1 [Example 95, (4R)-4-[3-[3-[6-[N-(Cyclopropyl-methyl)anilino]-3-pyridyl]azetidin-1-yl]-3-oxo-propyl]oxazolidin-2-one]
379 nM | CS(=O)(=O)c1ccc(-c2cnc(C3CN(C(=O)CC[C@@H]4COC(=O)N4)C3)nc2)c(Cl)c1 [Example 122, (4R)-4-[3-[3-[5-(2-Chloro-4-methylsulfonyl-phenyl)pyrimidin-2-yl]azetidin-1-yl]-3-oxo-propyl] oxazolidin-2-one]
17 nM | O=C1N[C@H](CCC(=O)N2CC(c3ccc(N4CCC(O)(C(F)(F)F)C4)nc3)C2)CO1 (stereo partly drawn) [Example 207, (+)- or (−)-(4R)-4-[3-[3-[6-[3-Hydroxy-3-(trifluoromethyl)pyrrolidin-1-yl]-3-pyridyl]azetidin-1-yl]-3-oxo-propyl]oxazolidin-2-one]
10 nM | CS(=O)(=O)c1cc(Cl)ccc1-c1ccc(C2CN(C(=O)CC[C@@H]3COC(=O)N3)C2)cn1 [Example 117, (4R)-4-[3-[3-[6-(4-Chloro-2-methylsulfonyl-phenyl)-3-pyridyl]azetidin-1-yl]-3-oxo-propyl]oxazolidin-2-one]
2270 nM | O=C1N[C@H](CCC(=O)N2CC3(C2)CN(S(=O)(=O)c2ccc(C(F)(F)F)cc2)C3)CO1 [Example 147, (4R)-4-[3-Oxo-3-[2-[4-(trifluoromethyl)phenyl]sulfonyl-2,6-diazaspiro [3.3]heptan-6-yl]propyl] oxazolidin-2-one]
33 nM | O=C1N[C@H](CCC(=O)N2CC(c3ccc(-c4cnc(C(F)(F)F)cn4)cc3)C2)CO1 [Example 119, (4R)-4-[3-Oxo-3-[3-[4-[5-(trifluoromethyl)pyrazin-2-yl]phenyl]azetidin-1-yl]propyl] oxazolidin-2-one]
4 nM | O=C1N[C@H](CCC(=O)N2CC(OCc3ccc(S(F)(F)(F)(F)F)cc3F)C2)CO1 [Example 26, (4R)-4-[3-[3-[[2-Fluoro-4-(pentafluoro-λ^6-sulfanyl)phenyl]methoxy]azetidin-1-yl]-3-oxo-propyl]oxazolidin-2-one]
